From US20110028566A1, “COMPOSITIONS AND PRODUCTS CONTAINING CYCLOALIPHATIC DIOL ANTIMICROBIAL AGENTS AND METHODS OF USING THE COMPOSITIONS AND PRODUCTS” (EASTMAN CHEMICAL COMPANY, priority 2009, published 2011)

Columns and labels:
Assay in all cases: Microbial challenge testing in BPW
Type in all cases: cell-based
[1] = test system: Proteus vulgaris
Experimental: (§1) The microorganisms used in challenge tests are given in Table 3, designated as either ATCC (American Type Culture Collection) or wild type. These wild type organisms were problematic organisms previously isolated from chemical products. In the description for each organism, the bacteria are indicated as either GN (Gram negative) or GP (Gram positive).
(§2) All of the microorganisms were grown in Tryptose Soy Broth (TSB), DIFCO™ available from Becton, Dickinson and Company, containing 1% dextrose. Aspergillus niger and Candida albicans were incubated at 22° C.±2° C. for at least 96 hours. All bacteria were incubated at 35° C.±2° C. in a humidified incubator for at least 96 hours.
(§3) The following procedure was followed to determine the amount of each challenge material (inoculum broth) required to produce a 10^8 cfu/mL challenge, which is equivalent to a final test-sample microbial concentration of 10^5 to 10^6 cfu (colony-forming units)/mL.
(§4) Using a sterile serological pipette, 1 mL of the growth from each TSB culture was transferred into tubes containing 9 mL phosphate buffer (pH 7.2) and mixed thoroughly. This process was repeated to make serial 1:10 dilutions. Then 0.1 mL of each sample and dilution was inoculated onto agar plates to produce the equivalent of a further 1:10 dilution. C. albicans and A. niger were inoculated onto SDA and bacteria were inoculated onto Plate Count Agar (PCA), DIFCO™ available from Becton, Dickinson and Company. The 0.1 mL aliquots were evenly distributed on the plates using the spread-plate technique. The spread-plate technique is performed by spreading the aliquot over the entire plate surface using a sterile spreading rod while rotating the plate with a rotary auto-plater. After the inoculum was absorbed completely, each plate was inverted and incubated (fungi at 22° C.±2° C. and bacteria at 35° C.±2° C.).
(§5) After incubation for at least 48 hours, colonies that had developed on the agar plates were counted and recorded with the corresponding dilution. If counting had to be delayed temporarily, plates were refrigerated, preferably no more than 24 hours, until they could be counted. The number of cfu/mL was determined by multiplying the count by the dilution factor for that particular plate.
(§6) Turbidity in Nepholemetric Turbidity Units (NTU) was measured for each serial dilution using the HF-Micro 100 Model Turbidimeter. For each microorganism, the plate counts were compared to the turbidity readings.
(§7) Control substrates (“broth alone”) were prepared for each microorganism separately in triplicate by adding 13.5 mL of BPW (pH 7.0) containing 1% (w/v) dextrose to each 20-mL glass tube; then adding 1.5 mL challenge material to produce a final concentration at time zero of 10^5 to 10^6 cfu/mL and a total volume of 15 mL.
(§8) Test sample substrates were prepared containing each test material (1,4-CHDM, etc) or combination of test materials at the concentrations shown in Tables 5 and 6. Sample substrates were prepared in triplicate, except those substrates containing PE or CG which were prepared in duplicate. Substrates were prepared by adding BPW containing 1% (w/v) dextrose to each 20-mL glass tube, then adding the test material in the amount appropriate to achieve the desired weight/volume percent (g/100 mL) and to obtain a total volume of BPW with dextrose and test material of 13.5 mL. Then 1.5 mL challenge material was added to produce a final concentration at time zero of 10^5 to 10^6 cfu/mL of the respective organism and a total test sample substrate volume of 15 mL.
(§9) After mixing, all challenged substrates were incubated at 35° C.±2° C. for 14 days and then at ambient room temperature.

[2] = test system: Aeromonas sp.
Experimental: as §1, §2, §3, §4, §5, §6, §7, §8, §9

[3] = test system: Staphylococcus epidermidis
Experimental: as §1, §2, §3, §4, §5, §6, §7, §8, §9

[4] = test system: Streptococcus mutans
Experimental: as §1, §2, §3, §4, §5, §6, §7, §8, §9

[5] = test system: Burkholderia cepacia
Experimental: as §1, §2, §3, §4, §5, §6, §7, §8, §9

[6] = test system: Staphylococcus aureus; settings: 0.05%
Experimental: as §1, §2, §3, §4, §5, §6, §7, §8, §9

O=c1[nH]sc2ccccc12 [BIT, 1,2-benzisothiazolin-3-one]
Grade code P. vulqaris ([1]; 0.05%, 3 days incubation): 4 (1001 to 10,000 colonies (thus 10,000 cfu/mL to 100,000 cfu/mL))
Grade code P. vulqaris ([1]; 0.05%, 13 days incubation): 4 (1001 to 10,000 colonies (thus 10,000 cfu/mL to 100,000 cfu/mL))
Grade code P. vulqaris ([1]; 0.05%, 30 days incubation): 4 (1001 to 10,000 colonies (thus 10,000 cfu/mL to 100,000 cfu/mL))
Grade code P. vulqaris ([1]; 0.2%, 3 days incubation): 4 (1001 to 10,000 colonies (thus 10,000 cfu/mL to 100,000 cfu/mL))
Grade code P. vulqaris ([1]; 0.2%, 13 days incubation): 2 (52 to 100 colonies counted (thus 520 to 1000 cfu/mL))
Grade code P. vulqaris ([1]; 0.2%, 30 days incubation): 0 (No growth detected or <1 colony (thus <10 cfu/mL))
Grade code Aeromonas sp ([2]; 0.05%, 3 days incubation): 5 (More than 10,000 colonies estimated (thus >100,000 cfu/mL))
Grade code Aeromonas sp ([2]; 0.05%, 14 days incubation): 4 (1001 to 10,000 colonies (thus 10,000 cfu/mL to 100,000 cfu/mL))
Grade code Aeromonas sp ([2]; 0.05%, 30 days incubation): 4 (1001 to 10,000 colonies (thus 10,000 cfu/mL to 100,000 cfu/mL))
Grade code Aeromonas sp ([2]; 0.2%, 3 days incubation): 4 (1001 to 10,000 colonies (thus 10,000 cfu/mL to 100,000 cfu/mL))
Grade code Aeromonas sp ([2]; 0.2%, 14 days incubation): 2 (52 to 100 colonies counted (thus 520 to 1000 cfu/mL))
Grade code Aeromonas sp ([2]; 0.2%, 30 days incubation): 2 (52 to 100 colonies counted (thus 520 to 1000 cfu/mL))
Grade code S. epidermidis ([3]; 0.05%, 3 days incubation): 4 (1001 to 10,000 colonies (thus 10,000 cfu/mL to 100,000 cfu/mL))
Grade code S. epidermidis ([3]; 0.05%, 13 days incubation): 4 (1001 to 10,000 colonies (thus 10,000 cfu/mL to 100,000 cfu/mL))
Grade code S. epidermidis ([3]; 0.05%, 30 days incubation): 4 (1001 to 10,000 colonies (thus 10,000 cfu/mL to 100,000 cfu/mL))
Grade code S. epidermidis ([3]; 0.2%, 3 days incubation): 4 (1001 to 10,000 colonies (thus 10,000 cfu/mL to 100,000 cfu/mL))
Grade code S. epidermidis ([3]; 0.2%, 13 days incubation): 2 (52 to 100 colonies counted (thus 520 to 1000 cfu/mL))
Grade code S. epidermidis ([3]; 0.2%, 30 days incubation): 2 (52 to 100 colonies counted (thus 520 to 1000 cfu/mL))
Grade code S. mutans ([4]; 0.05%, 3 days incubation): 1.7
Grade code S. mutans ([4]; 0.05%, 13 days incubation): 0 (No growth detected or <1 colony (thus <10 cfu/mL))
Grade code S. mutans ([4]; 0.05%, 30 days incubation): 0 (No growth detected or <1 colony (thus <10 cfu/mL))
Grade code S. mutans ([4]; 0.2%, 3 days incubation): 0 (No growth detected or <1 colony (thus <10 cfu/mL))
Grade code S. mutans ([4]; 0.2%, 13 days incubation): 0 (No growth detected or <1 colony (thus <10 cfu/mL))
Grade code S. mutans ([4]; 0.2%, 30 days incubation): 0 (No growth detected or <1 colony (thus <10 cfu/mL))
Effectiveness against S. mutans (in words) ([4]; BIT alone): highly effective
Grade code B. cepacia ([5]; 0.05%, 3 days incubation): 4 (1001 to 10,000 colonies (thus 10,000 cfu/mL to 100,000 cfu/mL))
Grade code B. cepacia ([5]; 0.05%, 14 days incubation): 4 (1001 to 10,000 colonies (thus 10,000 cfu/mL to 100,000 cfu/mL))
Grade code B. cepacia ([5]; 0.05%, 30 days incubation): 4 (1001 to 10,000 colonies (thus 10,000 cfu/mL to 100,000 cfu/mL))
Grade code B. cepacia ([5]; 0.2%, 3 days incubation): 3 (101 to 1000 colonies (thus 1000 to 10,000 cfu/mL))
Grade code B. cepacia ([5]; 0.2%, 14 days incubation): 1 (1 to 51 colonies counted (thus 10 to 510 cfu/mL))
Grade code B. cepacia ([5]; 0.2%, 30 days incubation): 2 (52 to 100 colonies counted (thus 520 to 1000 cfu/mL))
Grade code S. aureus ([6]; 3 days incubation): 4 (1001 to 10,000 colonies (thus 10,000 cfu/mL to 100,000 cfu/mL))
Grade code S. aureus ([6]; 14 days incubation): 4 (1001 to 10,000 colonies (thus 10,000 cfu/mL to 100,000 cfu/mL))
